{"source": "patent US20130178536A1", "about": "“SUBSTITUTED CIS- AND TRANS-STILBENES AS THERAPEUTIC AGENTS” (STC.UNM, priority 2006, published 2013)", "type_in_all_cases": "in vivo, mouse", "key": {"activated microglia": {"system": "activated microglia", "test": "Activated microglia density and radial distribution in brains of AD transgenic mice (Iba-1 staining)", "settings": "for Areal density of activated microglia: 100 ppm in diet, 1 year, mean±S.E.M., p<0.001, untreated 86.1±2.8; for Decrease in areal density of activated microglia: vs untreated transgenic mice", "from_the_text": "(§1) B6C3 transgenics (Jackson Laboratory) were used. These double transgenic mice express a chimeric mouse/human amyloid precursor protein (Mo/HuAPP695swe) and a mutant human presenilin 1 (PS1-dE9) both directed to CNS neurons. Both mutations are associated with early-onset Alzheimer's disease. The “humanized” Mo/HuAPP695swe transgene allows the mice to secrete a human Ab peptide. The included Swedish mutations (K595N/M596L) elevate the amount of Ab produced from the transgene by favoring processing through the beta-secretase pathway. Transgenic mice develop beta-amyloid deposits in brain by six to seven months of age. These animals also display a slight alteration in their tail phenotype that is believed to be due to the mixed genetic background of the strain and is not related to transgene expression. These mice are useful in studies of neurological disorders of the brain, specifically Alzheimer's disease, amyloid plaque formation.\n(§2) Female B6C3 transgenics were used. Animals were housed 5/cage and fed ad libitum. Groups included controls, RV groups, compound 1 groups and compound 2 groups. Each group was comprised of 15 animals. Diets contained standard dyes to provide different colors to each diet to avoid confusion during the 12 months feeding.\n(§3) Transgenic mice carrying mutated APP and presenilin-1 were fed this diet. It was observed early on that compound 2a (4cc) was toxic. Therefore, it was discontinued in the study. […] Twenty four hrs before sacrifice, SPIONs were injected via the tail vein. […] The MRI conspicuity of the plaques increased from a Z-score (signal to noise ratio) of 4.6±0.6 to 8.0±0.1 when the plaque Z-score was compared in control AD mice with AD mice treated with nanoparticles. The number of MRI-visible plaques per brain increased from 355±39 in the control AD mice, to 668±52 in the SPION treated mice.\nParaffin embedded brain sections were rehydrated by progressively immersing them in Hemo-De, 95% EtOH, 70% EtOH and finally 0.1M PBS. Antigens were retrieved by placing the slides in 6.0 pH 0.01 M sodium citrate buffer with heating to 90° C. for 20 minutes. After cooling to r.t., the slides were stained with Thioflavin-S as above. After rehydrating with 0.1M PBS for 5 minutes, the slides were blocked with 0.1M PBS containing 6% normal donkey serum for 45 minutes and then incubated overnight with rabbit anti-Iba-1, diluted 1:400, at 4° C. in a humidity chamber. The next day the slides were washed three times with 0.1M PBS. The secondary antibody, rhodamine-conjugated donkey anti-rabbit IgG, was diluted with 0.5% BSA in 0.1M PBS to 1:200 under light-restricted conditions. 100 μl of this secondary antibody solution was applied to each brain slice for 2 h in a light-tight container at r.t. The slides were then rinsed three times with 0.1M PBS and twice with dd water. Vectashield with DAPI was applied and the slides were cover-slipped and sealed for imaging. Images were taken with a Zeiss Axioskop 2 equipped with a Zeiss AxioCam and a Prior Lumen 200 fluorescence lamp (Cancer Center Fluorescence Microscopy Facility, University of New Mexico, Albuquerque, N. Mex., USA, http://hsc.unm.edu/crtc/microscopy/). Images were processed using Slidebook (Denver, Colo.). Confocal images were taken and processed using Zen (Carl Zeiss MicroImaging GmbH, Germany).\n(§4) Plaque number and area were measured on the CCD images of the IHC brain sections with the aid of ImageJ software (NIH) by thresholding and conversion of the images to binary images. The radial sizes of the plaques were measured using ImageJ on Thioflavin-S stained fluorescence micrographs of brain sections. The radial distributions of activated microglia were measured on spatially calibrated fluorescence micrographs of Iba-1 stained brain sections using the center of the plaque as the local point of reference and the center of the DAPI-stained microglial nucleus as the endpoint. […]"}, "Aβ plaques [1]": {"system": "Aβ plaques", "test": "MRI-detected plaques in brains of AD transgenic mice with anti-APP SPIONs", "settings": "for Decline in number of plaques per brain: 100 ppm in diet, 1 year, MRI", "from_the_text": "as §1, §2\nTransgenic mice carrying mutated APP and presenilin-1 were fed this diet. It was observed early on that compound 2a (4cc) was toxic. Therefore, it was discontinued in the study. […] Twenty four hrs before sacrifice, SPIONs were injected via the tail vein. […]\nPilot MRI studies of this line of transgenic mice were carried out at three magnetic field strengths: at 4.7 Tesla, at the UNM BRaIN Imaging Center, and at 9.4 and 16.4 Tesla at the Center for Magnetic Resonance Research at the University of Minnesota. […] One hundred ninety two MRI slices were analyzed by counting plaques in each slice, and by computing the statistical significance of the intensity in the hypointense plaque core versus the noise level in the surrounding tissue. […]"}, "Aβ plaques [2]": {"system": "Aβ plaques", "test": "Areal density of Aβ plaques in brains of AD transgenic mice (Thioflavin-S histology)", "settings": "for Plaque areal density: 100 ppm in diet, 1 year, mean±S.E.M., p<0.001, untreated 79.8±2.4; for Decrease in plaque areal density: vs untreated transgenic mice", "from_the_text": "as §1, §2, §3\nParaffin embedded brain sections were rehydrated by progressively immersing them in Hemo-De, 95% EtOH, 70% EtOH and finally 0.1M PBS. […] Images were taken with a Zeiss Axioskop 2 equipped with a Zeiss AxioCam and a Prior Lumen 200 fluorescence lamp (Cancer Center Fluorescence Microscopy Facility, University of New Mexico, Albuquerque, N. Mex., USA, http://hsc.unm.edu/crtc/microscopy/). […]\nas §4"}}, "data": [{"smiles": "Oc1ccc(/C=C/c2cc(O)cc(O)c2)cc1", "note": "[Resveratrol, reference compound]", "values": [{"measurement": "Proximal halo of microglia around plaques", "setting": "activated microglia", "value": 17, "unit": "µm"}, {"measurement": "Areal density of activated microglia", "setting": "activated microglia", "value": "34.7±1.8", "unit": "microglia/mm^2"}, {"measurement": "Decrease in areal density of activated microglia", "setting": "activated microglia", "value": 60, "unit": "%"}, {"measurement": "Decline in number of plaques per brain", "setting": "Aβ plaques [1]", "value": "3-6 fold"}, {"measurement": "Plaque areal density", "setting": "Aβ plaques [2]", "value": "51.8±2.4", "unit": "plaques/mm^2"}, {"measurement": "Decrease in plaque areal density", "setting": "Aβ plaques [2]", "value": 35, "unit": "%"}]}, {"smiles": "COc1ccc(/C=C/c2ccccc2F)cc1", "note": "[1a (LD-55)]", "values": [{"measurement": "Proximal halo of microglia around plaques", "setting": "activated microglia", "value": 24, "unit": "µm"}, {"measurement": "Areal density of activated microglia", "setting": "activated microglia", "value": "44.2±3.2", "unit": "microglia/mm^2"}, {"measurement": "Decrease in areal density of activated microglia", "setting": "activated microglia", "value": 49, "unit": "%"}, {"measurement": "Decline in number of plaques per brain", "setting": "Aβ plaques [1]", "value": "3-6 fold"}, {"measurement": "Total number of MRI-determined plaques", "setting": "Aβ plaques [1]; fed over entire life span, anti-APP SPIONs for 24 hours, SPION control n=668", "value": 209}, {"measurement": "Plaque areal density", "setting": "Aβ plaques [2]", "value": "55.4±4.8", "unit": "plaques/mm^2"}, {"measurement": "Decrease in plaque areal density", "setting": "Aβ plaques [2]", "value": 31, "unit": "%"}]}]}
